Experimental data from US6962920B2, “Pyrimidine derivatives and methods of making and using these derivatives” (Duquesne University of the Holy Ghost, priority 1992, dated 2005).

Assays:
CCRF-CEM cells = experiment: Growth inhibition of CCRF-CEM human leukemia cells, continuous exposure; assay type: cell-based; conditions: Table 8, continuous (0-120 hours) exposure, read-out: Growth inhibition EC50, CCRF-CEM
R30dm cells = experiment: Growth inhibition of R30dm subline (decreased polyglutamate synthase); assay type: cell-based; conditions: Homo sapiens, Table 8, continuous (0-120 hours) exposure, read-out: Growth inhibition EC50, R30dm
A253 = experiment: Growth inhibition of A253 human squamous carcinoma cell line; assay type: cell-based; conditions: Table 9, continuous (120 hours) exposure
Experimental: The performance of these compounds was evaluated against MTX.

[1] = molecular target: T1, CCRF-CEM human leukemia cell folylpolyglutamate synthetase (Homo sapiens, UniProt Q05932); experiment: Substrate activity for CCRF-CEM folylpolyglutamate synthetase; assay type: biochemical; conditions: Table 10
T1 construct: substrates for human leukemia cell CCRF-CEM folylpolyglutamate synthetase; endogenous in cells; host or cells: CCRF-CEM human leukemia cells
T1 sequence (Q05932 43-587): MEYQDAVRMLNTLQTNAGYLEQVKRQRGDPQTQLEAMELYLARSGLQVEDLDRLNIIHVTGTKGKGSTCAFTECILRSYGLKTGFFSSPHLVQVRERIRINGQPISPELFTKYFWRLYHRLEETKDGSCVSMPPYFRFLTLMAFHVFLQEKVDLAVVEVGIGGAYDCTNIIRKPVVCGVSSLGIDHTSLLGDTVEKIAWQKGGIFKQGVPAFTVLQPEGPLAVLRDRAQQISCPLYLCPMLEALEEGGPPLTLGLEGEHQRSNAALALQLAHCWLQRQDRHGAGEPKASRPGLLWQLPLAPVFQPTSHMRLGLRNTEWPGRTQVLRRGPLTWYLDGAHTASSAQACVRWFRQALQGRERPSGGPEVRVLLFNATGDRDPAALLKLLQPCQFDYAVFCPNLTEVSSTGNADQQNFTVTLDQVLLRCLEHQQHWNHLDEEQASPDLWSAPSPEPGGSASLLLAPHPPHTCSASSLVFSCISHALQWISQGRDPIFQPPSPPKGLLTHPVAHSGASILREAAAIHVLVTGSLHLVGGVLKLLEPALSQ
Experimental: Aminopterin is a classical 2,4-diamino antifolate substrate.
Compounds 33 and 34 were also evaluated for their substrate activity in CCRF-CEM human leukemia folylpolyglutamate synthetase; the compounds were compared against aminopterin.

HCC-2998 = experiment: NCI in vitro anti-cancer activity, Colon Cancer; assay type: cell-based; conditions: Homo sapiens; HCC-2998, Colon Cancer

EC50 (CCRF-CEM cells): 12.8 ± 2.2 nM
EC50 (A253): 46 ± 4 nM
Vmax(rel) ([1]; relative to aminopterin): 0.72 ± 0.07
Km ([1]; substrate for FPGS): < 1 µM
Compound: Nc1nc(N)c2c(CNc3ccc(C(=O)N[C@@H](CCC(=O)O)C(=O)O)cc3)c[nH]c2n1 [Compound 9]
EC50 (R30dm cells): 36 ± 1 nM
GI50 (HCC-2998): < 10 nM
